Laboratory results: PubChem BioAssay AID1774 (Sanford-Burnham Center for Chemical Genomics, 2009)
Active and inactive are the calls of the source. No rule for the calls is given here.

Tested on: MDA-MB-435 cytotoxicity with apoptosis inducers, ATPlite, 24 h
Test: PubChem AID 1774
Details: stronger effect = higher value

SMILES: CSc1nc(-c2ccc(C)cc2)nc(C(Cl)Cl)n1
- cytotoxicity (at 5 µM): -11% (inactive)
- cytotoxicity (compound alone 2.5 uM, at 2.5 µM): -19%
- cytotoxicity (plus doxorubicin 50 ug/mL, at 5 µM): 30%
- cytotoxicity (plus doxorubicin 100 ug/mL, at 5 µM): 75%
- cytotoxicity (plus etoposide 50 uM, at 5 µM): 18%
- cytotoxicity (plus etoposide 100 uM, at 5 µM): 14%
- cytotoxicity (plus thapsigargin 3 uM, at 5 µM): 17%
- cytotoxicity (plus thapsigargin 10 uM, at 5 µM): -7%
- cytotoxicity (plus tunicamycin 10 ug/mL, at 5 µM): 10%
- cytotoxicity (plus tunicamycin 30 ug/mL, at 5 µM): 16%
